Experimental findings from patent publication US20030134859A1 (SANKYO COMPANY, LIMITED, priority 2000, published 2003) are described below.

By IC50 is commonly meant the concentration that inhibits the measured activity by half.

The target in the test is T1, human PPAR γ 2 (Homo sapiens, UniProt P37231).
T1 construct: expressed in transfected cells; host or cells: human osteosarcoma MG63, transiently co-transfected with pSG5-hPPARg and the reporter pGV-P2-PPRE
T1 sequence (P37231 1-505): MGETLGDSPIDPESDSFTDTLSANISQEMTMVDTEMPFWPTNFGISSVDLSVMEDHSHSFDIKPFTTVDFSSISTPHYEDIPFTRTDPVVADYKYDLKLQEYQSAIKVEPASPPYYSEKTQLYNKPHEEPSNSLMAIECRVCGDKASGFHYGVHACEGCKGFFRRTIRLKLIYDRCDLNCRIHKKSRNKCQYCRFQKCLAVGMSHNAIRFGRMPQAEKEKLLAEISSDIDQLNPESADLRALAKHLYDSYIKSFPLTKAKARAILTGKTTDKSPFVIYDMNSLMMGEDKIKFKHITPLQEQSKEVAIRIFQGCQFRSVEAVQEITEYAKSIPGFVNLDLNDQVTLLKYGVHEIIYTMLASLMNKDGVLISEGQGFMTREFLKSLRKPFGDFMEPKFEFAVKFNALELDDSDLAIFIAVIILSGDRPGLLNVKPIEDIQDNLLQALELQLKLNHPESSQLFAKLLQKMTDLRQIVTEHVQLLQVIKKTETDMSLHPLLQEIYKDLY
As to the kind of experiment: Inhibitory activity against PPAR γ transcription in the presence of agonist compound A, luciferase reporter. The test is classed as cell-based. As to conditions: in the presence of 10 nM compound A (agonist); MG63 cells transfected with pSG5-hPPARg and pGV-P2-PPRE; 24 hr. Background: In a reporter assay the amount or activity of a reporter protein is the signal.
On to `Cc1cc(NS(=O)(=O)c2ccc(NC(=O)c3cc([N+](=O)[O-])ccc3Cl)cc2)no1` [Example 99], for which the IC50 was 680 nM.
The same measure for `O=C(Nc1ccc(CCO)cc1)c1cc([N+](=O)[O-])ccc1Cl` [Example 230, N-[4-(2-Hydroxyethyl)phenyl]-(2-chloro-5-nitrophenyl)carboxamide]: 19 nM; for `CC(C)(C)c1cc(C(=O)Nc2ccc(NC(=O)c3cc([N+](=O)[O-])ccc3Cl)cc2)cc(C(C)(C)C)c1O` [Example 157, N-[4-[(3,5-di-tert-Butyl-4-hydroxybenzoyl)amino]phenyl]-(2-chloro-5-nitrophenyl)carboxamide]: 23 nM; for `CC(C)(C)OC(=O)Nc1ccc(-c2ccc(NC(=O)c3cc([N+](=O)[O-])ccc3Cl)cc2)cc1` [Example 87, N-[4-[4-(tert-Butoxycarbonylamino)phenyl]phenyl]-(2-chloro-5-nitrophenyl)carboxamide]: 33 nM.
To `Cc1nc(NC(=O)c2cc([N+](=O)[O-])ccc2Cl)sc1C` [Example 47] belongs 38 nM.
As to `Cc1cccc(-c2csc(NC(=O)c3cc([N+](=O)[O-])ccc3Cl)n2)c1` [Example 40, N-[4-(3-Methylphenyl)thiazol-2-yl)-(2-chloro-5-nitrophenyl)carboxamide], the IC50 came out at 57 nM.
To `CCCCCCCCN(CC)c1ccc(-c2ccc(NC(=O)c3cc([N+](=O)[O-])ccc3Cl)cc2)cc1` [Example 225, N-[4-[4-(N-Ethyl-N-octylamino)phenyl]phenyl]-(2-chloro-5-nitrophenyl)carboxamide] belongs 190 nM.
To `CCOC(=O)c1ccc(NC(=O)c2cc([N+](=O)[O-])ccc2Cl)cc1` [Example 26, N-(4-Ethoxycarbonylphenyl)-(2-chloro-5-nitrophenyl)carboxamide] belongs 6.3 nM; to `O=C(Nc1nncs1)c1cc([N+](=O)[O-])ccc1Cl` [Example 85, N-(1,3,4-Thiadiazol-2-yl)-(2-chloro-5-nitrophenyl)carboxamide], 91 nM; to `CCCCCCCCN(CCCC)c1ccc(-c2ccc(NC(=O)c3cc([N+](=O)[O-])ccc3Cl)cc2)cc1.Cl` [Example 223, N-[4-[4-(N-Butyl-N-octylamino)phenyl]phenyl]-(2-chloro-5-nitrophenyl)carboxamide mono-hydrochloride], 89 nM.
The same measure for `O=C(Nc1nc(-c2ccccc2)cs1)c1cc([N+](=O)[O-])ccc1Cl` [Example 35, N-(4-Phenylthiazol-2-yl)-(2-chloro-5-nitrophenyl)carboxamide]: 30 nM.
Regarding `O=C(Nc1nc(-c2ccccn2)cs1)c1cc([N+](=O)[O-])ccc1Cl` [Example 38, N-[4-(2-Pyridyl)thiazol-2-yl)-(2-chloro-5-nitrophenyl)carboxamide], the half-inhibitory concentration (IC50) is 45 nM.
To `CC(C)(C)OC(=O)Nc1cccc(-c2csc(NC(=O)c3cc([N+](=O)[O-])ccc3Cl)n2)c1` [Example 234, N-[4-(3-tert-Butoxycarbonylaminophenyl)thiazol-2-yl]-(2-chloro-5-nitrophenyl)carboxamide] belongs 19 nM.
With `O=C(Nc1ccc(S(=O)(=O)Nc2ccc(N3CCOCC3)cc2)cc1)c1cc([N+](=O)[O-])ccc1Cl` [Example 179, N-[4-[4-(Morpholin-4-yl)phenyl]aminosulfonyl]phenyl-(2-chloro-5-nitrophenyl)carboxamide], the IC50 stood at 56 nM.
The same measure for `O=C(Nc1ccc(NC(=S)Nc2ccncc2)cc1)c1cc([N+](=O)[O-])ccc1Cl` [Example 259, N-[4-[(Pyridin-4-yl)aminothiocarbonylamino]phenyl]-(2-chloro-5-nitrophenyl)carboxamide]: 31 nM; for `Cc1ccc2nc(-c3ccc(NC(=O)c4cc([N+](=O)[O-])ccc4Cl)cc3)sc2c1` [Example 10, N-[4-(6-Methylbenzothiazol-2-yl)phenyl]-(2-chloro-5-nitrophenyl)carboxamide]: 71 nM.
To `O=C(Nc1nc(-c2cccc3ccccc23)cs1)c1cc([N+](=O)[O-])ccc1Cl` [Example 41, N-[4-(1-Naphthyl)thiazol-2-yl]-(2-chloro-5-nitrophenyl)carboxamide] belongs 77 nM; to `O=C(Nc1cccc(O)c1)c1cc([N+](=O)[O-])ccc1Cl` [Example 191, N-(3-Hydroxyphenyl)-(2-chloro-5-nitrophenyl)carboxamide], 30 nM.
To `CCc1ccc(-c2csc(NC(=O)c3cc([N+](=O)[O-])ccc3Cl)n2)cc1` [Example 44, N-[4-(4-Ethylphenyl)thiazol-2-yl]-(2-chloro-5-nitrophenyl)carboxamide] belongs 84 nM; to `CC(O)c1cccc(NC(=O)c2cc([N+](=O)[O-])ccc2Cl)c1` (stereo not drawn) [Example 239, N-[3-(1-Hydroxyethyl)phenyl]-(2-chloro-5-nitrophenyl)carboxamide], 52 nM; to `CN(C)c1cccc(NC(=O)c2cc([N+](=O)[O-])ccc2Cl)c1` [Example 176, N-(3-Dimethylamino)phenyl-(2-chloro-5-nitrophenyl)carboxamide], 66 nM.
`Cc1ccc(S(=O)(=O)Nc2ccc(NC(=O)c3cc([N+](=O)[O-])ccc3Cl)cc2)cc1` [Example 116, N-[4-(4-Toluenesulfonylamino)phenyl]-(2-chloro-5-nitrophenyl)carboxamide]: the half-inhibitory concentration (IC50) stood at 55 nM.
To `O=C(Nc1nnc(-c2ccccc2)s1)c1cc([N+](=O)[O-])ccc1Cl` [Example 110, N-(5-Phenyl-[1,3,4]thiadiazol-2-yl)-(2-chloro-5—nitrophenyl)carboxamide] belongs 190 nM; to `CCCNc1ccc(NC(=O)c2cc([N+](=O)[O-])ccc2Cl)cc1` [Example 181, N-[4-(N-Propylamino)phenyl]-(2-chloro-5-nitrophenyl)carboxamide], 20 nM.
The same measure for `Cc1cccc(NC(=O)c2cc([N+](=O)[O-])ccc2Cl)n1` [Example 51, N-(6-Methylpyridin-2-yl)-(2-chloro-5-nitrophenyl)carboxamide]: 120 nM; for `O=C(Nc1cccnc1)c1cc([N+](=O)[O-])ccc1Cl` [Example 50, N-(3-Pyridyl)-(2-chloro-5-nitrophenyl)carboxamide]: 110 nM; for `CS(=O)(=O)N(c1ccc(-c2ccc(NC(=O)c3cc([N+](=O)[O-])ccc3Cl)cc2)cc1)S(C)(=O)=O` [Example 235, N-[4-[4-(N,N-Dimethanesulfonylamino)phenyl]phenyl]-(2-chloro-5-nitrophenyl)carboxamide]: 19 nM.
Take `Cc1ccc(-c2nc(NC(=O)c3cc([N+](=O)[O-])ccc3Cl)sc2C)cc1Cl` [Example 46, N-[4-(3-Chloro-4-methylphenyl)-5-methylthiazol-2-yl]-(2-chloro-5-nitrophenyl)carboxamide]: the concentration for half-maximal inhibition (IC50) was 54 nM.
To `O=C(Nc1nc(-c2ccc(F)c(F)c2)cs1)c1cc([N+](=O)[O-])ccc1Cl` [Example 111, N-[4-(3,4-Difluorophenyl)thiazol-2-yl]-(2-chloro-5-nitrophenyl)carboxamide] belongs 27 nM.
As to `O=C(Nc1cccc2nsnc12)c1cc([N+](=O)[O-])ccc1Cl` [Example 86, N-(2,1,3-Benzothiazol-4-yl)-(2-chloro-5-nitrophenyl)carboxamide], the IC50 amounted to 710 nM.
In the case of `Cc1ccc(NC(=O)c2cc([N+](=O)[O-])ccc2Cl)cc1` [Example 1, N-(4-Methylphenyl)-(2-chloro-5-nitrophenyl)carboxamide], the IC50 worked out at 33 nM.
To `O=C(Nc1ccc(S(=O)(=O)Nc2ccnn2-c2ccccc2)cc1)c1cc([N+](=O)[O-])ccc1Cl` [Example 108, N-[4-[(2-Phenyl-(2H)-pyrazol-3-yl)aminosulfonyl]phenyl]-(2-chloro-5-nitrophenyl)carboxamide] belongs 59 nM; to `Cc1ccccc1-c1csc(NC(=O)c2cc([N+](=O)[O-])ccc2Cl)n1` [Example 39, N-[4-(2-Methylphenyl)thiazol-2-yl]-(2-chloro-5-nitrophenyl)carboxamide], 40 nM; to `O=C(Nc1ccc2c3c(cccc13)CC2)c1cc([N+](=O)[O-])ccc1Cl` [Example 54, N-(Acenaphthen-5-yl)-(2-chloro-5-nitrophenyl)carboxamide], 340 nM.
The same measure for `CCCN(CC)c1ccc(NC(=O)c2cc([N+](=O)[O-])ccc2Cl)cc1` [Example 189, N-[4-(N-Ethyl-N-propylamino)phenyl]-(2-chloro-5-nitrophenyl)carboxamide]: 3.6 nM; for `COc1ccc(NC(=O)c2cc([N+](=O)[O-])ccc2Cl)cc1-c1ccccc1` [Example 6, N-(4-Methoxy-3-phenyl)phenyl-(2-chloro-5-nitrophenyl)carboxamide]: 160 nM; for `CCCCCCN(CCCCCC)c1ccc(NC(=O)c2cc([N+](=O)[O-])ccc2Cl)cc1` [Example 138, N-[4-(N,N-di-n-Hexylamino)phenyl]-(2-chloro-5-nitrophenyl)carboxamide]: 20 nM.
The same measure for “N-(Ethoxyphenyl)-(2-chloro-5-nitrophenyl)carboxamide [Example 229]”: 46 nM; for `CCCCCCCCN(CCCC)c1ccc(-c2ccc(NC(=O)c3cc([N+](=O)[O-])ccc3Cl)cc2)cc1` [Example 222, N-[4-[4-(N-Butyl-N-octylamino)phenyl]phenyl]-(2-chloro-5-nitrophenyl)carboxamide]: 160 nM.
